# Assay results as given in patent publication US20160113931A1, “Method of treating and/or preventing neurodegenerative diseases” (University of Macau, priority 2014, published 2016).
# Entries after “also recorded” stand apart in the source; their conditions may differ.
# Assays:
# [1] = system: cerebellar granule neurons (CGNs); assay: MPP+-induced neurotoxicity in primary cerebellar granule neurons (MTT assay); type: cell-based, mice; conditions: 10 and 30 μM, 2 h pre-treatment, 40 μM MPP+ 24 h
# Procedure: (§1) Cerebellar tissue slice were treated with 30 μM BHDPC with or without MPP^+ for 72 h and then were stained with PI.
# (§2) The percentage of surviving cells was estimated by determining the activity of mitochondrial dehydrogenases with 3(4,5-dimethylthiazol-2-yl)-2,5-diphenyltetrazolium bromide (MTT) assay. After drug treatment, cells were incubated at 37° C. for 4 h in 0.5 mg/mL MTT solution. The medium was then removed, and 100 μL of DMSO was added to each well to dissolve the violet formazan crystals. The absorbance of the samples was measured at a wavelength of 570 nm with 655 nm as a reference wavelength. All values were normalized to the control groups.
# Rat CGNs were prepared from 8-day-old Sprague-Dawley rats (The Animal Care Facility, The Hong Kong Polytechnic University) as described in our previous publication. Briefly, neurons were seeded at a density of 2.7×10^5 cells/ml in basal modified Eagle's medium (Invitrogen) containing 10% fetal bovine serum, 25 mM KCl, 2 mM glutamine, and penicillin (100 units/ml)/streptomycin (100 μg/ml). […]
# To further confirm the effect of BHDPC on primary neurons, mice cerebellar granule neurons were treated with BHDPC at the indicated concentrations for 2 hours and then exposed to 40 μM MPP^+. Cell viability was measured by the MTT assay at 24 hours after the MPP^+ challenge.
# cerebellar tissue slices = assay: MPP+-induced cell death in cerebellar tissue slice culture (PI and NeuN staining); type: cell-based, rat; conditions: 30 μM, MPP+ 3 days
# Procedure: as §1
# Following decapitation, brains of post-natal Day 9-10 SD rat were dissected out and sagittal slices (300 μm) of the cerebellum were immediately cut using a McIlwain tissue chopper, the slices were then isolated in Eagle's medium with Earle's salts medium (MEM) on ice and then placed on Millipore Millicell-CM™ organotypic culture inserts in pre-warmed medium containing MEM, Earle's balanced salt solution, heat-inactivated horse serum, GlutaMAX™, Fungizone®, and penicillin-streptomycin (each from Invitrogen), and glucose (Sigma). […]
# After 3-4 days treatment of MPP^+ together with BHDPC, slices were fixed with 4% paraformaldehyde and then stained by immunohistochemistry. […] Three to four separate slice isolations (about 4-5 pups/isolation) were used, with 3-5 slices analysed from each isolation for each factor and dose.
# Slices were fixed with 4% paraformaldehyde at room temperature for 1 hour, blocked with 5% donkey serum, 0.3% Triton™ X-100, and then incubated in primary antibodies for 2 days at 4° C. […] Confocal z-stacks were acquired (at 1.3 μm intervals and 10-15 images were acquired per stack) with a Leica SPE confocal microscope and images analysed using NIH ImageJ. […]
# NIH mice = assay: Acute toxicity assay in NIH mice; type: in vivo; conditions: maximum dose, observed 14 days
# Procedure: NIH mice, sex in half, for acute toxicity assay was supplied by Guangzhou Medicinal Experiment Animal Center and the animal qualification code was 44007200007090 and the certificate number was SCXK (Guangdong) 2013-0002. The animals were kept in the SPF-grade animal laboratory which was conformed to the SPF grade requirement of animal testing facility, where temperature was within the range of 22° C. (±2° C.) and the humidity was in the range of 30-70%. The diurnal lighting and darkness cycle was 12 hours. The air change per hour was in the range of 10-20 times. The approval no. of the SPF animal laboratory was SYXK (Guangdong) 2005-0062. The rat chow was the SPF-grade full pellet for mouse, which was bought from Guangdong Medicinal Laboratory Animal Center. The nutritional values and the sanitation condition were conformed to the SPF-grade requirement for animal testing. Antiseptic water were given ad libitum.
# NIH mice were randomly divided into 6 groups. Ten NIH mice, sex in half, were assigned to for each group. […]
# SH-SY5Y cells = assay: Cytotoxicity of BHDPC in SH-SY5Y cells (MTT assay); type: cell-based, human; conditions: BHDPC 3 to 30 μM, 24 h
# Procedure: The human neuroblastoma SH-SY5Y cells were purchased from America Tissue Type Collection. The cells were maintained in DMEM medium supplemented with 10% fetal bovine serum and penicillin/streptomycin (100 U/mL; 100 μg/mL) in a 37° C., 5% CO2 incubator. All experiments were carried out 48 hours after the cells were seeded.
# as §2
# To evaluate the cytotoxicity of BHDPC, SH-SY5Y cells were incubated with various concentrations of BHDPC for 24 h and the cell viability was determined using MTT assay.
compound,measurement,setting,value
"COc1cc(C2C(C(=O)OCc3ccccc3)=C(C)Nc3nnnn32)ccc1O (stereo not drawn) [BHDPC, benzyl 7-(4-hydroxy-3-methoxyphenyl)-5-methyl-4,7-dihydrotetrazolo[1,5-a]pyrimidine-6-carboxylate]","MPP+-induced neuronal death (cell viability, MTT)",[1],reduced MPP^+-induced dopaminergic neuronal death; also recorded: prevented MPP^+-induced neuronal death
same,MPP+-induced CNS cells death and neurons death in brain slices,cerebellar tissue slices,prevented MPP^+-induced neuronal death
same,MPP+-induced CNS cells death and neurons death in brain slices,cerebellar tissue slices; listed as BHDPCs,attenuated
same,toxic effects,"NIH mice; 5 mg/kg, iv",no toxic effects were observed
same,toxic effects,"NIH mice; 10 mg/kg, oral gavage",no toxic effects were observed
same,"cytotoxicity (cell viability, MTT)",SH-SY5Y cells,did not cause any cytotoxicity
